According to ChEMBL document CHEMBL1201862, “PubChem BioAssay data set” (2004):
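Grown in 96-well plates, cells were treated for 48 hours with each compound at five concentrations. Insufficient inhibition: endpoint recorded as highest concentration tested. GI50: concentration for 50% inhibition of growth.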 Active and inactive are the calls of the source. No stated cut-off is given here; in the data, active = GI50 up to about 1.1 µM and inactive = higher.

Assays:
Assay in all cases: NCI tumour cell line growth inhibition, 48 h
[1] = system: COLO 205
[2] = system: NCI-H226
[3] = system: SNB-19
[4] = system: HOP-92
[5] = system: HCC 2998
[6] = system: SF-268
[7] = system: SK-MEL-2
[8] = system: PC-3
[9] = system: SK-OV-3
[10] = system: OVCAR-4
[11] = system: 786-0
[12] = system: SNB-75
[13] = system: MCF7
[14] = system: NCI/ADR-RES
[15] = system: OVCAR-5
[16] = system: HOP-62
[17] = system: Hs-578T
[18] = system: NCI-H522
[19] = system: CCRF-CEM
[20] = system: OVCAR-3
[21] = system: Malme-3M
[22] = system: MDA-N
[23] = system: CAKI-1
[24] = system: BT-549
[25] = system: HT-29
[26] = system: RPMI-8226
[27] = system: SN12C
[28] = system: SF-539
[29] = system: SF-295
[30] = system: EKVX
[31] = system: MDA-MB-231
[32] = system: UACC-62
[33] = system: MOLT-4
[34] = system: IGROV-1
[35] = system: UO-31
[36] = system: HCT-15
[37] = system: SW-620
[38] = system: KM12
[39] = system: M14
[40] = system: SK-MEL-28
[41] = system: TK-10
[42] = system: HCT-116
[43] = system: NCI-H23
[44] = system: T47D
[45] = system: DU-145
[46] = system: U-251
[47] = system: SK-MEL-5
[48] = system: ACHN
[49] = system: UACC-257
[50] = system: OVCAR-8
[51] = system: MDA-MB-435
[52] = system: K562
[53] = system: NCI-H460
[54] = system: RXF 393
[55] = system: LOX IMVI
[56] = system: SR
[57] = system: A549
[58] = system: HL-60
[59] = system: A498

How did the GI50 [1] turn out when `O=c1c2ccccc2[nH]c(=S)n1-c1ccc(/N=N/c2cccc3c(O)cccc23)cc1` was run?
Its GI50 is 32 µM (inactive).

What about the GI50 [2] of the same compound?
The GI50 was > 100 µM (inactive).

What about the GI50 [3] of the same compound?
The GI50 was > 100 µM (inactive).

And the GI50 [4]?
Its GI50 is > 100 µM (inactive).

And the GI50 [5]?
The GI50 was > 100 µM (inactive).

What about the GI50 [6] of the same compound?
The GI50 was > 100 µM (inactive).

What about the GI50 [7] of the same compound?
Its GI50 is > 100 µM (inactive).

What about the GI50 [8] of the same compound?
Its GI50 is 67.6 µM (inactive).

And the GI50 [9]?
Its GI50 is > 100 µM (inactive).

And the GI50 [10]?
The GI50 was > 100 µM (inactive).

And the GI50 [11]?
The GI50 was > 100 µM (inactive).

What about the GI50 [12] of the same compound?
Its GI50 is > 100 µM (inactive).

What about the GI50 [13] of the same compound?
The GI50 was 13.5 µM (inactive).

And the GI50 [14]?
The GI50 was > 100 µM (inactive).

And the GI50 [15]?
The GI50 was 76.7 µM (inactive).

And the GI50 [16]?
The GI50 was > 100 µM (inactive).

What about the GI50 [17] of the same compound?
Its GI50 is > 100 µM (inactive).

What about the GI50 [18] of the same compound?
Its GI50 is > 100 µM (inactive).

And the GI50 [19]?
The GI50 was > 100 µM (inactive).

And the GI50 [20]?
The GI50 was 62.2 µM (inactive).

And the GI50 [21]?
The GI50 was 88.9 µM (inactive).

And the GI50 [22]?
The GI50 was 34.4 µM (inactive).

What about the GI50 [23] of the same compound?
The GI50 was > 100 µM (inactive).

And the GI50 [24]?
Its GI50 is > 100 µM (inactive).

And the GI50 [25]?
Its GI50 is > 100 µM (inactive).

And the GI50 [26]?
The GI50 was 65.3 µM (inactive).

What about the GI50 [27] of the same compound?
The GI50 was > 100 µM (inactive).

What about the GI50 [28] of the same compound?
The GI50 was > 100 µM (inactive).

What about the GI50 [29] of the same compound?
Its GI50 is > 100 µM (inactive).

What about the GI50 [30] of the same compound?
The GI50 was > 100 µM (inactive).

And the GI50 [31]?
The GI50 was 53.3 µM (inactive).

And the GI50 [32]?
Its GI50 is 24.4 µM (inactive).

And the GI50 [33]?
The GI50 was 45.3 µM (inactive).

What about the GI50 [34] of the same compound?
The GI50 was 55.3 µM (inactive).

What about the GI50 [35] of the same compound?
Its GI50 is > 100 µM (inactive).

What about the GI50 [36] of the same compound?
Its GI50 is 38.5 µM.

What about the GI50 [37] of the same compound?
Its GI50 is > 100 µM (inactive).

What about the GI50 [38] of the same compound?
The GI50 was > 100 µM (inactive).

What about the GI50 [39] of the same compound?
Its GI50 is 50.8 µM (inactive).

And the GI50 [40]?
The GI50 was > 100 µM (inactive).

And the GI50 [41]?
Its GI50 is > 100 µM (inactive).

What about the GI50 [42] of the same compound?
The GI50 was > 100 µM (inactive).

And the GI50 [43]?
Its GI50 is > 100 µM (inactive).

What about the GI50 [44] of the same compound?
Its GI50 is > 100 µM (inactive).

And the GI50 [45]?
Its GI50 is > 100 µM (inactive).

What about the GI50 [46] of the same compound?
The GI50 was 87.5 µM (inactive).

And the GI50 [47]?
The GI50 was 24.9 µM (inactive).

And the GI50 [48]?
Its GI50 is 88.3 µM (inactive).

What about the GI50 [49] of the same compound?
The GI50 was 50.9 µM (inactive).

And the GI50 [50]?
The GI50 was > 100 µM (inactive).

What about the GI50 [51] of the same compound?
The GI50 was 23 µM (inactive).

And the GI50 [52]?
Its GI50 is 36.2 µM (inactive).

What about the GI50 [53] of the same compound?
The GI50 was > 100 µM (inactive).

What about the GI50 [54] of the same compound?
The GI50 was > 100 µM (inactive).

And the GI50 [55]?
Its GI50 is 39 µM (inactive).

What about the GI50 [56] of the same compound?
Its GI50 is 74.5 µM (inactive).

What about the GI50 [57] of the same compound?
Its GI50 is > 100 µM (inactive).

And the GI50 [58]?
The GI50 was 54.8 µM (inactive).

Which results are given for `CC(C)CC1NC(=O)C(C(C)C)NC(=O)CC(C)COC(=O)C(CC(C)C)N(C)C(=O)C(C(C)C)NC(=O)C(C(C)C)OC1=O` (stereo not drawn)?
GI50 [1]: > 50 µM (inactive); GI50 [2]: 13 µM (inactive); GI50 [3]: 17.1 µM (inactive); GI50 [4]: 26.5 µM (inactive); GI50 [5]: > 50 µM (inactive); GI50 [6]: > 50 µM (inactive); GI50 [7]: 18.2 µM (inactive); GI50 [8]: > 50 µM (inactive); GI50 [9]: 29.1 µM (inactive); GI50 [11]: 31.3 µM (inactive); GI50 [12]: 10.9 µM (inactive); GI50 [13]: > 50 µM (inactive); GI50 [14]: > 50 µM (inactive); GI50 [15]: 37.7 µM (inactive); GI50 [16]: 15.2 µM (inactive); GI50 [17]: 26.7 µM (inactive); GI50 [18]: > 50 µM (inactive); GI50 [19]: 15.2 µM (inactive); GI50 [20]: > 50 µM (inactive); GI50 [21]: > 50 µM (inactive); GI50 [22]: > 50 µM (inactive); GI50 [23]: 48.9 µM (inactive); GI50 [24]: > 50 µM (inactive); GI50 [25]: > 50 µM (inactive); GI50 [27]: > 50 µM (inactive); GI50 [28]: 8.28 µM (inactive); GI50 [29]: 38.4 µM (inactive); GI50 [30]: > 50 µM (inactive); GI50 [31]: 19.7 µM (inactive); GI50 [32]: 16 µM (inactive); GI50 [33]: > 50 µM (inactive); GI50 [34]: > 50 µM (inactive); GI50 [35]: > 50 µM (inactive); GI50 [36]: > 50 µM; GI50 [37]: > 50 µM (inactive); GI50 [38]: > 50 µM (inactive); GI50 [39]: 38.5 µM (inactive); GI50 [40]: > 50 µM (inactive); GI50 [42]: > 50 µM (inactive); GI50 [43]: > 50 µM (inactive); GI50 [59]: > 50 µM (inactive); GI50 [44]: > 50 µM (inactive); GI50 [45]: > 50 µM (inactive); GI50 [46]: 31.2 µM (inactive); GI50 [47]: > 50 µM (inactive); GI50 [48]: > 50 µM (inactive); GI50 [49]: > 50 µM (inactive); GI50 [50]: 34.7 µM (inactive); GI50 [51]: > 50 µM (inactive); GI50 [52]: > 50 µM (inactive); GI50 [53]: > 50 µM (inactive); GI50 [54]: 16.1 µM (inactive); GI50 [55]: 23.5 µM (inactive); GI50 [56]: > 50 µM (inactive); GI50 [57]: > 50 µM (inactive)
